US6479435B1, “Diaryl ethers and processes for their preparation and herbicidal and desiccant compositions containing them” (ISK Americas Incorporated, priority 1997, dated 2002)

Legend:
Assay type in all cases: in vivo
[1] = test system: upland rice (Oryza sp., var.Tebonnet, RICE); assay: Post-emerge greenhouse test, crop damage rating; conditions: 14 days after application, scale 0-100
Outline: (§1)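 Compounds in acetone with 0.25% v/v non-ionic surfactant were track-sprayed at 187 l/ha over plants at the 2-3 leaf stage, at 63 to 1000 g ai/ha. Pots were bottom-watered. Injury was scored visually 14 days later on a 0-100 scale, where 0 is no damage and 100 is complete plant death.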

[2] = test system: field corn (Zea mays L., var. Dekalb 535, CORN); assay: Post-emerge greenhouse test, crop damage rating; conditions: 14 days after application, scale 0-100
Outline: as §1

[3] = test system: common ragweed (Ambrosia artemisiifolia L., AMBEL); assay: Post-emerge greenhouse herbicide test, phytotoxicity rating; conditions: 14 days after application, scale 0-100
Source text: (§2) A standard greenhouse herbicide activity screening system was used to evaluate the herbicidal efficacy and crop safety of these test compounds. Six broadleaf weed species including redroot pigweed (Amaranthus retroflexus, AMARE), velvetleaf (Abutilon theophrasti, ABUTH), sicklepod (Cassia obtusifolia, CASOB), ivyleaf morningglory (Ipomoea hederacea, IPOHE), lambsquarters (Chenopodium album, CHEAL) and common ragweed (Ambrosia artemisiifolia L., AMBEL) were used as test species. Four grass weed species including green foxtail (Setaria viridis, SETVI), barnyardgrass (Echinochloa crusgalli, ECHCG), Johnsongrass (Sorghum halepense, SORHA), and large crabgrass (Digitaria sanguinalis, DIGSA) were also used. In addition, three crop species, field corn (Zea mays L., var. Dekalb 535, CORN), soybean (Glycine max L., var. Pella 86, SOY), and upland rice (Oryza sp., var.Tebonnet, RICE) were included.
All test compounds were dissolved in acetone and applied to the test units in a volume of 187 l/ha. […] Plants were arranged on a shelf so that the top of the canopy (post-emerge) or top of the soil surface (pre-emerge) was 40-45 cm below the nozzle. Pressurized air was used to force the test solution through the nozzle as it was mechanically advanced (via electrically driven chain drive) over the top of all test plants/pots. This application simulates a typical commercial field herbicide application.
(§3) In the post-emerge test, a commercial non-ionic surfactant was also included (0.25% v/v) to enhance wetting of the leaf surfaces Qf target plants at rates ranging from 63 g ai/ha to 1000 g ai/ha. For post-emerge tests, seeds were planted 8-21 days prior to the test to allow emergence and good foliage development prior to application of the test substances. At the time of the post-emerge application, plants of all species were usually at the 2-3 leaf stage of development. Post-emerge test units were always bottom-watered.
(§4) At 14 days after application of the test materials, phytotoxicity ratings were recorded. A rating scale of 0-100 was used as previously described in Research Methods in Weed Science, 2nd edition, B. Truelove, Ed., Southern Weed Science Society, Auburn University, Auburn, Ala., 1977. Briefly, “0” corresponds to no damage and “100” corresponds to complete death of all plants in the test unit. This scale was used both to determine efficacy against weed species and damage to crop species. Herbicide activity data for various compounds of this invention, which are shown by compound number in Tables 1-9, are shown in Tables 13 and 14.

[4] = test system: soybean (Glycine max L., var. Pella 86, SOY); assay: Pre-emerge greenhouse test, crop damage rating; parameters: key to SOY crop damage rating: 0 = no damage, 100 = complete death of all plants; conditions: 14 days after application, rating scale 0-100
Outline: (§5)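 Seeds sown in sandy loam mix one day before track-sprayer application of compounds in acetone at 125–1000 g ai/ha (187 l/ha), then surface-watered to incorporate and bottom-watered. Visual rating 14 days after application on a 0–100 scale (0 = no damage, 100 = all plants dead).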

[5] = test system: soybean (Glycine max L., var. Pella 86, SOY); assay: Post-emerge greenhouse test, crop damage rating; parameters: key to crop damage rating SOY: 0-100 scale: 0 = no damage, 100 = complete death of all plants; conditions: 14 days after application, scale 0-100
Outline: as §1

[6] = test system: large crabgrass (Digitaria sanguinalis, DIGSA); assay: Pre-emerge greenhouse herbicide test, phytotoxicity rating; conditions: 14 days after application, rating scale 0-100
Source text: as §2
(§6) All plants were grown in 10 cm square plastic pots which were filled with a sandy loam soil mix. For preemerge tests, seeds were planted one day prior to application of the test compounds. Immediately after application, test units of the pre-emerge applications were watered at the soil surface to incorporate the test materials. Subsequently, these test units were bottom-watered.
(§7) All test compounds were dissolved in acetone and applied to the test units in a volume of 187 l/ha. Test materials were applied at rates ranging from 125 g ai/ha to 1000 g ai/ha using a track sprayer equipped with a TJ8001E even flow flat fan spray nozzle. Plants were arranged on a shelf so that the top of the canopy (post-emerge) or top of the soil surface (pre-emerge) was 40-45 cm below the nozzle. Pressurized air was used to force the test solution through the nozzle as it was mechanically advanced (via electrically driven chain drive) over the top of all test plants/pots. This application simulates a typical commercial field herbicide application.
as §4

[7] = test system: green foxtail (Setaria viridis, SETVI); assay: as above; conditions: 14 days after application, rating scale 0-100
Source text: as §2, §6, §7, §4

[8] = test system: lambsquarters (Chenopodium album, CHEAL); assay: as above; conditions: 14 days after application, rating scale 0-100
Source text: as §2, §6, §7, §4

[9] = test system: Johnsongrass (Sorghum halepense, SORHA); assay: as above; conditions: 14 days after application, rating scale 0-100
Source text: as §2, §6, §7, §4

[10] = test system: barnyardgrass (Echinochloa crusgalli, ECHCG); assay: as above; conditions: 14 days after application, rating scale 0-100
Source text: as §2, §6, §7, §4

[11] = test system: ivyleaf morningglory (Ipomoea hederacea, IPOHE); assay: as above; conditions: 14 days after application, rating scale 0-100
Source text: as §2, §6, §7, §4

[12] = test system: sicklepod (Cassia obtusifolia, CASOB); assay: as above; conditions: 14 days after application, rating scale 0-100
Source text: as §2, §6, §7, §4

[13] = test system: velvetleaf (Abutilon theophrasti, ABUTH); assay: as above; conditions: 14 days after application, rating scale 0-100
Source text: as §2, §6, §7, §4

[14] = test system: redroot pigweed (Amaranthus retroflexus, AMARE); assay: as above; conditions: 14 days after application, rating scale 0-100
Source text: as §2, §6, §7, §4

[15] = test system: large crabgrass (Digitaria sanguinalis, DIGSA); assay: Post-emerge greenhouse herbicide test, phytotoxicity rating; conditions: 14 days after application, scale 0-100
Source text: as §2, §7, §3, §4

[16] = test system: green foxtail (Setaria viridis, SETVI); assay: as above; conditions: 14 days after application, scale 0-100
Source text: as §2, §7, §3, §4

[17] = test system: lambsquarters (Chenopodium album, CHEAL); assay: as above; conditions: 14 days after application, scale 0-100
Source text: as §2, §7, §3, §4

[18] = test system: Johnsongrass (Sorghum halepense, SORHA); assay: as above; conditions: 14 days after application, scale 0-100
Source text: as §2, §7, §3, §4

[19] = test system: barnyardgrass (Echinochloa crusgalli, ECHCG); assay: as above; conditions: 14 days after application, scale 0-100
Source text: as §2, §7, §3, §4

[20] = test system: ivyleaf morningglory (Ipomoea hederacea, IPOHE); assay: as above; conditions: 14 days after application, scale 0-100
Source text: as §2, §7, §3, §4

[21] = test system: sicklepod (Cassia obtusifolia, CASOB); assay: as above; conditions: 14 days after application, scale 0-100
Source text: as §2, §7, §3, §4

[22] = test system: velvetleaf (Abutilon theophrasti, ABUTH); assay: as above; conditions: 14 days after application, scale 0-100
Source text: as §2, §7, §3, §4

[23] = test system: redroot pigweed (Amaranthus retroflexus, AMARE); assay: as above; conditions: 14 days after application, scale 0-100
Source text: as §2, §7, §3, §4

[24] = test system: upland rice (Oryza sp., var.Tebonnet, RICE); assay: Pre-emerge greenhouse test, crop damage rating; conditions: 14 days after application, rating scale 0-100
Outline: as §5

[25] = test system: field corn (Zea mays L., var. Dekalb 535, CORN); assay: Pre-emerge greenhouse test, crop damage rating; conditions: 14 days after application, rating scale 0-100
Outline: as §5

CCOC(=O)C(C)Oc1ccc(Oc2cc(-n3c(=O)n4n(c3=S)CCCC4)c(F)cc2Cl)c(N)c1 (centres unmarked) [Compound 8-40]
crop damage rating RICE ([1]; rate 63 g ai/ha): 0 | crop damage rating RICE ([1]; rate 250 g ai/ha): 0 | crop damage rating CORN ([2]; rate 63 g ai/ha): 0 | crop damage rating CORN ([2]; rate 250 g ai/ha): 10 | phytotoxicity rating AMBEL ([3]; rate 63 g ai/ha): 80 | phytotoxicity rating AMBEL ([3]; rate 250 g ai/ha): 20 | SOY crop damage rating ([4]; Rate 125 g al/ha): 0 | SOY crop damage rating ([4]; Rate 250 g al/ha): 0 | crop damage rating SOY ([5]; rate 63 g ai/ha): 80 | crop damage rating SOY ([5]; rate 250 g ai/ha): 60 | DIGSA phytotoxicity rating ([6]; Rate 125 g al/ha): 0 | DIGSA phytotoxicity rating ([6]; Rate 250 g al/ha): 0 | SETVI phytotoxicity rating ([7]; Rate 125 g al/ha): 0 | SETVI phytotoxicity rating ([7]; Rate 250 g al/ha): 0 | CHEAL phytotoxicity rating ([8]; Rate 125 g al/ha): 50 | CHEAL phytotoxicity rating ([8]; Rate 250 g al/ha): 100 | SORHA phytotoxicity rating ([9]; Rate 125 g al/ha): 0 | SORHA phytotoxicity rating ([9]; Rate 250 g al/ha): 0 | ECHCG phytotoxicity rating ([10]; Rate 125 g al/ha): 0 | ECHCG phytotoxicity rating ([10]; Rate 250 g al/ha): 0 | IPOHE phytotoxicity rating ([11]; Rate 125 g al/ha): 0 | IPOHE phytotoxicity rating ([11]; Rate 250 g al/ha): 0 | CASOB phytotoxicity rating ([12]; Rate 125 g al/ha): 0 | CASOB phytotoxicity rating ([12]; Rate 250 g al/ha): 20 | ABUTH phytotoxicity rating ([13]; Rate 125 g al/ha): 50 | ABUTH phytotoxicity rating ([13]; Rate 250 g al/ha): 30 | AMARE phytotoxicity rating ([14]; Rate 125 g al/ha): 60 | AMARE phytotoxicity rating ([14]; Rate 250 g al/ha): 100 | phytotoxicity rating DIGSA ([15]; rate 63 g ai/ha): 0 | phytotoxicity rating DIGSA ([15]; rate 250 g ai/ha): 0 | phytotoxicity rating SETVI ([16]; rate 63 g ai/ha): 0 | phytotoxicity rating SETVI ([16]; rate 250 g ai/ha): 10 | phytotoxicity rating CHEAL ([17]; rate 63 g ai/ha): 60 | phytotoxicity rating CHEAL ([17]; rate 250 g ai/ha): 80 | phytotoxicity rating SORHA ([18]; rate 63 g ai/ha): 0 | phytotoxicity rating SORHA ([18]; rate 250 g ai/ha): 0 | phytotoxicity rating ECHCG ([19]; rate 63 g ai/ha): 0 | phytotoxicity rating ECHCG ([19]; rate 250 g ai/ha): 0 | phytotoxicity rating IPOHE ([20]; rate 63 g ai/ha): 40 | phytotoxicity rating IPOHE ([20]; rate 250 g ai/ha): 100 | phytotoxicity rating CASOB ([21]; rate 63 g ai/ha): 0 | phytotoxicity rating CASOB ([21]; rate 250 g ai/ha): 75 | phytotoxicity rating ABUTH ([22]; rate 63 g ai/ha): 100 | phytotoxicity rating ABUTH ([22]; rate 250 g ai/ha): 100 | phytotoxicity rating AMARE ([23]; rate 63 g ai/ha): 80 | phytotoxicity rating AMARE ([23]; rate 250 g ai/ha): 90 | RICE crop damage rating ([24]; Rate 125 g al/ha): 0 | RICE crop damage rating ([24]; Rate 250 g al/ha): 0 | CORN crop damage rating ([25]; Rate 125 g al/ha): 0 | CORN crop damage rating ([25]; Rate 250 g al/ha): 0
